# Source: patent US5317024A, “Ether derivatives of alkyl piperidines and pyrrolidines as antipsychotic agents” (DuPont Merck Pharmaceutical Co., priority 1993, dated 1994)
# Counter-ions that a name gives are not always drawn. Like-named read-outs stand apart in the source and are kept apart here.
# Tests used:
# [1] = biological target: T1, dopamine D-2 receptor (Cavia porcellus, UniProt H0VE83); experiment: Dopamine Receptor Binding ([3H]spiperone, striatum membranes); set-up: species or system guinea pig
# T1 construct: Membranes were prepared from guinea pig striatum; from tissue; host or cells: guinea pig striatum membranes
# Method: (§1) Male Hartley guinea pigs (250-300 g, Charles River) were sacrificed by decapitation. […] Whole brains were homogenized (20 seconds) in 10 vol (wt/vol) of ice-cold 0.34 M sucrose with a Brinkmann Polytron (setting 8). The homogenate was centrifuged at 920 × g for 10 minutes. The supernatant was centrifuged at 47,000 × g for 20 minutes. The resulting membrane pellet was resuspended in 10 vol (original wt/vol) of 50 mM Tris HCl (pH 7.4) and incubated at 37° C. for 45 minutes to degrade and dissociate bound endogenous ligands. The membranes were then centrifuged at 47,000 × g for 20 minutes and resuspended in 50 mM Tris HCl (50 mL per brain).
# Membranes were prepared from guinea pig striatum by the method described for sigma receptor binding. The membranes were then resuspended in 50 mM Tris HCl (9 mL per brain).
# Nonspecific binding was measured in the presence of 100 nM (+)-butaclamol.After 15 minutes of incubation at 37° C., samples were filtered rapidly through Whatman GF/C glass filters under negative pressure, and washed three times with ice-cold binding buffer (5 mL).
# IC50 s were calculated from log-logit plots.
# [2] = Isolation-Induced Aggression in Mice; assay type: in vivo, Male Balb/c mice; conditions: oral; for ED50: Mus musculus, 0.25 h, 15 min after dosing, isolated male Balb/c mice, read-out: Inhibition of Isolation-induced Aggression ED50; for inhibiting isolation-induced aggressive behavior (in words): mice, summary of Table 5
# Method: Male Balb/c mice (Charles River) were used. […] Isolated mice failing to consistently attack an intruder were eliminated from the colony. Drug testing was carried out by treating the isolated mice with test drugs or standards. Fifteen minutes after dosing with test drugs by the oral route, one isolated mouse was removed from its home cage and placed in the home cage of another isolate. Scoring was a yes or no response for each pair. A maximum of 3 minutes was allowed for an attack and the pair was separated immediately upon an attack. Selection of home cage and intruder mice was randomized for each test. Mice were treated and tested twice a week with at least a 2 day washout period between treatments.
# [3] = biological target: sigma receptor (Cavia porcellus, UniProt Q60492); experiment: biochemical; conditions: 1 nM (+)-[3H]SKF 10,047, guinea pig brain membranes, pH 7.4, 45 min, room temperature; read-out: SIGMA receptor binding Ki
# Method: as §1
# After 45 minutes of incubation at room temperature, samples were filtered rapidly through Whatman GF/C. glass filters under negative pressure, and washed 3 times with ice-cold Tris buffer (5 mL).
# IC50 s were calculated from log-logit plots. Apparent Ki s were calculated from the equation, Ki = IC50 /[1+(L/Kd)] (4), where L is the concentration of radio ligand and Kd is its dissociation constant.
# [4] = 0.15 nM [3H]spiperone, guinea pig striatum membranes, pH 7.7, 15 min, 37° C., read-out: DOPAMINE D-2 receptor binding Ki
# Chain of sigma receptor (Q60492 whole entry): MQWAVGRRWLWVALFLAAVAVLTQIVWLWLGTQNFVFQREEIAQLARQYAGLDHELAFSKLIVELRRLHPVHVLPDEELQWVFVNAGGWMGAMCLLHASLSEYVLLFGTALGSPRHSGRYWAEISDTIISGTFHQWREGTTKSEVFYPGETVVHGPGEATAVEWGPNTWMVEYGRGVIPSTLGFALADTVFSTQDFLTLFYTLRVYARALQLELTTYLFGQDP
# T1 sequence (H0VE83 1-446): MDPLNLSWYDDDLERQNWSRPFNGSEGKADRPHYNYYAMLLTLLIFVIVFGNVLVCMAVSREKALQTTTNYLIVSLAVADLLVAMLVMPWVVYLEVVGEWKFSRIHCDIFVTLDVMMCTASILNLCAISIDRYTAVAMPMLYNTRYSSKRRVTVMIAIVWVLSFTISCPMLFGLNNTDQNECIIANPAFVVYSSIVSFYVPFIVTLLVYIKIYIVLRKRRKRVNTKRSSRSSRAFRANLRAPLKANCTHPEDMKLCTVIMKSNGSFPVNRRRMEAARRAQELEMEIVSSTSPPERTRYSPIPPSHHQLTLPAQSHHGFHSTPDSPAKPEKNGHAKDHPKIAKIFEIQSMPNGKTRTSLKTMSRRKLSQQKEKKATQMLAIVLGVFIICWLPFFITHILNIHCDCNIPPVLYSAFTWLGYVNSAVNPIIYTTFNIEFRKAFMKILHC
SMILES,"Ki [1, 4] [nM]",ED50 [2] [mg/kg],inhibiting isolation-induced aggressive behavior (in words) [2],Ki [3] [nM],Ki [1] [nM]
"C(=C\c1ccccc1)/COCC1CCN(Cc2ccccc2)CC1.Cl [Example 21, (E)-1-Benzyl-4-[(3-phenyl-2-propenyloxy)methyl]piperidine hydrochloride]",> 500,21 to 70,effective,1 to 30,
"Fc1ccc(/C=C/COCC2CCN(Cc3ccccc3)CC2)cc1 [Example 22, (E)-1-benzyl-4-{[3-(4-fluoro)phenyl-2-propenyloxy]methyl} piperidine, hydrochloride salt]",> 500,,,1 to 30,
C(=C\c1ccccc1)/COCC1CCN(CC2CC2)CC1 [Example 23],> 500,,,1 to 30,
C(=C\c1ccccc1)/COCCC1CCCCN1Cc1ccccc1 (centres unmarked) [Example 24],> 500,,,1 to 30,
"C(=C\c1ccccc1)/COCC1CCN(CCc2ccccc2)CC1 [Example 25, (E)-1-phenethyl-4-[(3-phenyl-2-propenyloxy)methyl] piperidine, hydrochloride salt]",101 to 500,21 to 70,effective,1 to 30,
C(=C\c1ccccc1)/COCC1CCN(Cc2ccc3ccccc3c2)CC1 [Example 26],> 500,,,1 to 30,
C(=C\c1ccccc1)/COCC1CCCN(Cc2ccccc2)C1 (centres unmarked) [Example 27],> 500,,,1 to 30,
C(=C\c1ccccc1)/COCC1CCCCN1Cc1ccccc1 (centres unmarked) [Example 28],> 500,,,1 to 30,
CC(C)=CCN1CCC(COC/C=C/c2ccccc2)CC1 [Example 29],> 500,,,1 to 30,
"C(=C\c1ccccc1)/COCC1CCN(CCCc2ccccc2)CC1 [Example 30, (E)-1-(3-phenyl)propyl-4-[(3-phenyl-2-propenyloxy)methyl]piperidine, hydrochloride salt]",> 500,,,1 to 30,
C(=C\c1ccccc1)/COC1CCN(Cc2ccccc2)CC1 [Example 31],> 500,,,1 to 30,
C(=C\c1ccccc1)/COC1CCN(Cc2ccccc2)C1 (centres unmarked) [Example 32],> 500,,,1 to 30,
C(=C\c1ccccc1)/COCC1CCN(Cc2cccc3ccccc23)CC1 [Example 33],> 500,,,31 to 100,
C(COCC1CCN(Cc2ccccc2)CC1)=C(c1ccccc1)c1ccccc1 [Example 34],,,,1 to 30,> 500
"FC(F)(F)c1ccc(/C=C/COCC2CCN(Cc3ccccc3)CC2)cc1 [Example 35, (E)-1-benzyl-4-{[3-(4-trifluoromethyl)phenyl-2-propenyloxy]methyl}piperidine, maleic acid salt]",> 500,,,1 to 30,
CCCCCCN1CCC(COC/C=C/c2ccccc2)CC1 [Example 36],> 500,,,1 to 30,
C(=C\c1ccccc1)/COC[C@H]1CCCN1Cc1ccccc1 [Example 37],> 500,,,1 to 30,
C(=C\c1ccccc1)/COC[C@@H]1CCCN1Cc1ccccc1 [Example 38],> 500,,,1 to 30,
"C(#Cc1ccccc1)COCCC1CCN(CCc2ccccc2)CC1 [Example 39, 1-Phenethyl-4-(3-phenyl-2-propynyloxy)ethyl] piperidine, hydrochloride salt]",101 to 500,,,1 to 30,
C(#Cc1ccccc1)COCCC1CCN(Cc2ccccc2)CC1 [Example 40],> 500,,,1 to 30,
"C(=C\c1ccccc1)/COCCC1CCN(Cc2ccccc2)CC1 [Example 41, (E)-1Benzyl-4-[(3-phenyl-2-propenyloxy)lethyl]piperidine, maleic acid salt]",> 500,,,1 to 30,
"C(=C/c1ccccc1)/COCCC1CCN(Cc2ccccc2)CC1 [Example 42, (Z)-1-Benzyl-4[(3-phenyl-2-propenyloxy)ethyl]piperidine]",> 500,,,31 to 100,
"O=C(CCCN1CCC(O)(c2ccc(Cl)cc2)CC1)c1ccc(F)cc1 [Haloperidol, reference compound]",,< 10,effective,,
